This is an account of results in a melting point compilation (Tetko et al.).

Molecules are shown by their SMILES.

For `C[C@]12CC[C@H]3[C@@H](CCC4CC(=O)CC[C@@]43C)[C@@H]1CC[C@H]2OC=O` (stereo partly drawn), the melting point (commonly the temperature, or range, at which the solid turns liquid) worked out at 124 °C.
As to `Nc1n[nH]c(N)c1Cc1ccc(Cl)cc1`, the melting point was in the range of 165 to 167 °C.
The result for `Cc1cn(CCC(=O)O)c2ccccc12` reads 87 to 88 °C; that for `O=C1OC=CC(c2ccccc2)Cc2ccccc21` (stereo not drawn), 120 °C.
With `CCCC(=O)Nc1ccc(O)cc1`, the melting point worked out at 140 °C.
The result for `CN1CCN(Cc2ccccc2I)CC1` reads 37 to 38 °C; that for `ClCc1cc(Cl)cc(Cl)c1`, 36 °C; that for `COc1ccc(C(C)(C)c2ccc(OC)cc2)cc1`, 54 to 59 °C.
The molecule `COc1cc(N=C=S)c(OC)cc1Cl` had a melting point of 84 to 86 °C.
Regarding `O=C1OC(=O)C2CC(c3ccccc3)CCC12` (stereo not drawn), the melting point lay in the range of 105 to 106 °C.
Molecule `O=C(C1=NN(c2ccccc2)C2C(=O)N(c3ccc([N+](=O)[O-])cc3)C(=O)C12)c1ccc(Br)cc1` (stereo not drawn) yielded a melting point of 151 °C.
`N#Cc1ccc(C(F)(F)F)cc1` registered a melting point of 38 °C.
The result for `NC(=O)CN1CCCC1=O` reads 152 °C.
`CC(=O)C1CCc2ccccc2C1=O` (stereo not drawn) returned a melting point of 56 °C.
`CC12CCC(O)CC1CCC1C2C(=O)CC2(C)C1CCC2(O)C(=O)CO` (stereo not drawn) displayed a melting point of 213 °C.
As to `CNC(=O)Oc1cccc2ccccc12`, the melting point was 142 °C.
On to `N#Cc1ccc(F)c(C(F)(F)F)c1`, for which the melting point was found to be 68 °C.
In turn, `COC(=O)C(C)(C)C(CC(=O)O)c1ccccc1` (stereo not drawn) showed a melting point of 111 °C.
The molecule `Nc1ccc2c(c1N)C(=O)c1ccccc1C2=O` displayed a melting point of 290 °C.
For the molecule `O=[N+]([O-])c1ccccc1C=Cc1cc(/C=C/c2ccccc2[N+](=O)[O-])c([N+](=O)[O-])cc1[N+](=O)[O-]`, the melting point turned out to be 291 °C.
As to `Cn1cnc2c(NCc3ccccc3)nc(NCCO)nc21`, the melting point was in the range of 120 to 130 °C.
As to `O=C1c2ccccc2-c2ccc(Cl)cc21`, the melting point came to 126 °C.
With `Cc1ccc(Sc2ncccc2C(=O)Cl)cc1`, the melting point was 102 to 104 °C.
As to `COc1ccc(O)c(C(C)=O)c1`, the melting point is 49 °C.
Regarding `O=[N+]([O-])c1ccc(O)cc1F`, the melting point fell in the range of 92 to 95 °C.
For the molecule `CCCCCCCCCc1ccc(OCCOCCO)cc1`, the melting point stood at 43 °C.
The result for `Cc1cc2oc(-c3ccccc3)cc(=O)c2cc1Cl` reads 174 to 178 °C; that for `CCOC(=O)c1c(C)nsc1N`, 111 to 113 °C.
For the molecule `CC(C)(C)c1cc(C(C)(C)C)c([N+](=O)[O-])c(C(C)(C)C)c1`, the melting point lay in the range of 205 to 206 °C.
Molecule `c1ccc2c(Oc3cccc4ccccc34)cccc2c1` returned a melting point of 110 °C.
In the case of `CCOC(=O)c1c(C)oc(N)c1C(=O)OCC`, the melting point lay within 84 to 85 °C.
The result for `CCCCCCCCOCCCCCCCC` reads -7.6 °C; that for `COc1cc(O)c(C=O)c(OC)c1`, 70 °C.
Consider `Cc1ccc(N)cc1NS(C)(=O)=O`, for which the melting point was in the range of 170 to 172 °C.
Molecule `CC(C)CCCC(C)C1CCC2C3CC=C4C=CCCC4(C)C3CCC12C` (stereo not drawn) came in with a melting point of 80 °C.
With `CC(C(=O)O)N1C(=O)c2ccccc2C1=O` (stereo not drawn), the melting point was 163 °C.
To `Brc1cccc2c1Oc1cccc(Br)c1O2` belongs 207 °C; to `CC(C)OC=O`, -80 °C.
`NCCCC(=O)O` returned a melting point of 197 to 204 °C.
To `O=C(O)CCCCC=C(c1ccccc1)c1cccnc1` belongs 114 °C.
On to `CN(C)CCCNc1c2ccccc2nc2cccc([N+](=O)[O-])c12`, for which the melting point is 134 °C.
In turn, `Cc1onc(-c2c(Cl)cccc2Cl)c1C(=O)O` came in with a melting point of 223 °C.
The molecule `Cc1cc(C)c(CC(=O)c2oc3ccccc3c2N)c(C)c1` returned a melting point of 188 to 189 °C.
